Measurements published in patent US20040214832A1, “Piperazine derivative renin inhibitors” (priority 2003, published 2004).

Target: T1, human renin (Homo sapiens, UniProt P00797)
T1 sequence (P00797 67-406): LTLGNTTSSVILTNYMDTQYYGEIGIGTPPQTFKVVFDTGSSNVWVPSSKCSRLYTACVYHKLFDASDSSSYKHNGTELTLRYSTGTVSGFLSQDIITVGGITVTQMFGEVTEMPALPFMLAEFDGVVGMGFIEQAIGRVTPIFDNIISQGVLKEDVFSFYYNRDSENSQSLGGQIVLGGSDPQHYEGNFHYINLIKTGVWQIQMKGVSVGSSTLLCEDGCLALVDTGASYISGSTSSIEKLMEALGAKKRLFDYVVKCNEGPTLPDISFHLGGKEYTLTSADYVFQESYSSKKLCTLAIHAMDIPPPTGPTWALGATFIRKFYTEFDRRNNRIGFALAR
Test: Determination of renin IC50 by tGFP FRET assay
Format: biochemical
Settings: Human recombinant renin, tandem GFP substrate 650 nM, 60 min incubation with compound, pH 7.4, 11-point curve
From the text: Determination of Renin IC50 by tGFP FRET Assay
The tGFP FRET (fluorescence resonance energy transfer) assay utilizes a tandem GFP substrate (60 kDa, Discovery Technologies) containing nine amino acid recognition sequences for human renin flanked by two GFP proteins. The assay is used to determine the ability of a compound to act as an inhibitor of renin enzymatic activity by determination of that concentration of test compound that inhibits by 50% (IC50) the ability of renin to cleave the tandem GFP substrate. The IC50 values are determined over an 11-point curve at concentrations of 100 μM to 1 pM. Each compound concentration used to construct the curve was dependent on renin inhibitor potency. For example, subnanomolar IC50 values were determined over an 11-point curve at concentrations of 10 μM to 1 pM. All other IC50 values were determined over an 11-point curve at concentrations of 100 μM to 0.0065 μM. The concentrations were achieved by diluting a 9.1 nM stock of Human recombinant renin in the appropriate amount of buffer containing 50 mM HEPES, 1 mM EDTA, 1% PEG (8000 MW), 1 mM DTT, 0.1% BSA, pH 7.4 to achieve the final concentration of 50.4 μIU. The tGFP substrate stock solution of 43 μM was diluted with the appropriate amount of the above buffer to obtain the final concentration of 650 nM. In addition, 1 μl of the compound is diluted in dimethylsulfoxide (DMSO) to represent an […] log scale (5% final). The SR renin and compound are added to a 384 capacity plate by an automated robot (BIOMEK). The plate is incubated for 60 minutes; upon completion the tGFP substrate is added.
The IC50 is determined by monitoring the increase in […] at 432/432 nm excitation, 530/475 nm emission with a cutoff at 515/455 nm, in a fluorometric plate reader.

| SMILES | IC50 [nM] |
| --- | --- |
| COc1ccccc1COCCCOc1ccc(N2C(=O)CNC[C@@H]2COCc2cccc(C)c2)cc1 [Example 15, (6R)-1-{4-[3-(2-methoxybenzyloxy)-propoxy]-phenyl}-6-(3-methylbenzyloxymethyl)-piperazin-2-one] | 372 |
| COc1ccccc1COCCCOc1ccc(N2C(=O)CNC[C@@H]2COCc2ccncc2)cc1 [Example 25, (6R)-1-{4-[3-(2-methoxybenzyloxy)-propoxy]-phenyl}-6-(pyridin-4-ylmethoxymethyl)-piperazin-2-one] | > 1000 |
| COc1ccccc1COCCCOc1ccc(N2C(=O)CNC[C@@H]2COCc2ccc(C)cc2)cc1 [Example 7, (6R)-1-{4-[3-(2-methoxybenzyloxy)-propoxy]-phenyl}-6-(4-methylbenzyloxymethyl)-piperazin-2-one] | 337 |
| COc1ccccc1COCCCOc1ccc(N2C(=O)CNC[C@@H]2COc2ccc3ccccc3c2)cc1C(=O)O [Example 98, 2-[(5R)-3-(2-methoxybenzyloxy)-propoxy]-5-[2-(naphthalene-2-yloxymethyl)-6-oxopiperazin-1-yl]-benzoic acid] | > 1000 |
| COc1ccc(COC[C@H]2CNCCN2c2ccc(OCCCOCc3cc(F)cc(F)c3)cc2)cc1 [Example 67, (2R)-1-{4-[3-(3,5-difluorobenzyloxy)-propoxy]-phenyl}-2-(4-methoxybenzyloxymethyl)-piperazine] | 4340 |
| COc1ccccc1COCCCOc1ccc(N2CCNC[C@@H]2COc2ccc3c(c2)CCCC3)cc1 [Example 40, (2R)-1-{4-[3-(2-methoxybenzyloxy)-propoxy]-phenyl}-2-(5,6,7,8-tetrahydronaphthalen-2-yloxymethyl)-piperazine] | 440 |
| COc1ccccc1COCCCOc1ccc(N2C(=O)CNC[C@@H]2COc2ccc3ccncc3c2)cc1 [Example 51, (6R)-6-(isoquinolin-7-yloxymethyl)-1-{4-[3-(2-methoxybenzyloxy)-propoxy]-phenyl}-piperazin-2-one] | 528 |
| COc1ccccc1COCCCOc1ccc(N2C(=O)CNC[C@@H]2COc2ccc3c(c2)N(CC(N)=O)CCC3)cc1 [Example 56, 2-[7-(1-{4-[3-(2-methoxybenzyloxy)-propoxy]-phenyl}-6-oxopiperazin-(2R)-ylmethoxy)-3,4-dihydro-2H-quinolin-1-yl]-acetamide] | 435 |
| CC(=O)NCCN1CCCc2ccc(OC[C@H]3CNCC(=O)N3c3ccc(OCCCOCc4ccccc4F)cc3)cc21 [Example 126, N-{2-[7-([2R]-1-{4-[3-(2-Fluorobenzyloxy)-propoxy]-phenyl}-6-oxopiperazin-2-ylmethoxy)-3,4-dihydro-2H-quinolin-1-yl]-ethyl}-acetamide] | 5 |
| COc1ccccc1COCCCOc1ccc(N2C(=O)CNC[C@@H]2COCc2ccc(C#N)cc2)cc1 [Example 28, (6R)-4-(1-{4-[3-(2-methoxybenzyloxy)-propoxy]-phenyl}-6-oxopiperazin-2-ylmethoxymethyl)-benzonitrile] | > 1000 |
| COc1ccccc1COCCCOc1ccc(N2C(=O)CNC[C@@H]2COc2ccc3ccccc3c2)cc1OC [Example 107, (6R)-1-(3-methoxy-4-[3-(2-methoxybenzyloxy)-propoxy]-phenyl)-6-(naphthalene-2-yloxymethyl)-piperazin-2-one] | 537 |
| COc1ccccc1OCCCCOc1ccc(N2C(=O)CNC[C@@H]2COc2ccc3ccccc3c2)cc1 [Example 73, (6R)-1-{4-[4-(2-methoxyphenoxy)-butoxy]-phenyl}-6-(naphthalen-2-yloxymethyl)-piperazin-2-one] | 1730 |
| COc1ccccc1COCCCOc1ccc(N2C(=O)CNC[C@@H]2COc2ccc3ncccc3c2)cc1 [Example 52, (6R)-1-{4-[3-(2-methoxybenzyloxy)-propoxy]-phenyl}-6-(quinolin-6-yloxymethyl)-piperazin-2-one] | 3450 |
| COc1ccc(COC[C@H]2CNCCN2c2ccc(OCCCOCc3ccccc3OC)cc2)cc1 [Example 33, (2R)-2-(4-methoxybenzyloxymethyl)-1-{4-[3-(2-methoxy-benzyloxy)-propoxy]-phenyl}-piperazine] | 3990 |
| COc1ccc(COC[C@H]2CNCCN2c2ccc(OCCCOCc3ccc(Cl)cc3)cc2)cc1 [Example 62, (2R)-1-{4-[3-(4-chlorobenzyloxy)-propoxy]-phenyl}-2-(4-methoxybenzyloxymethyl)-piperazine] | 43700 |
| COc1ccc(COC[C@H]2CNCCN2c2ccc(OCCCCOc3ccccc3OC)cc2)cc1 [Example 75, (2R)-2-(4-methoxybenzyloxymethyl)-1-{4-[4-(2-methoxyphenoxy)-butoxy]-phenyl}-piperazine] | 42000 |
| c1ccc(COc2ccc(N3CCNC[C@@H]3COc3ccc4ccccc4c3)cc2)cc1 [Example 35, (2R)-1-(4-benzyloxyphenyl)-2-(naphthalen-2-yloxymethyl)-piperazine] | > 1000 |
| COc1ccc(COC[C@H]2CNCCN2c2ccc(OCCCOCc3cccc(Cl)c3)cc2)cc1 [Example 64, (2R)-1-{4-[3-(3-chlorobenzyloxy)-propoxy]-phenyl}-2-(4-methoxybenzyloxymethyl)-piperazine] | 5040 |
| COc1ccccc1COCCCOc1ccc(N2C(=O)CNC[C@@H]2COc2ccc3c(c2)CCCN3C(C)=O)cc1 [Example 54, (6R)-6-(1-acetyl-1,2,3,4-tetrahydroquinolin-6-yloxymethyl)-1-{4-[3-(2-methoxybenzyloxy)-propoxy]-phenyl}-piperazin-2-one] | > 1000 |
| COc1ccc(COC[C@H]2CNCCN2c2ccc(OCCCOCc3ccccc3)cc2)cc1 [Example 34, (2R)-1-[4-(3-benzyloxypropoxy)-phenyl]-2-(4-methoxybenzyloxymethyl)-piperazine] | 10900 |
| COc1ccccc1COCCCOc1ccc(N2C(=O)CNC[C@@H]2COCc2ccc(C(F)(F)F)cc2)cc1 [Example 13, (6R)-1-{4-[3-(2-methoxybenzyloxy)-propoxy]-phenyl}-6-(4-trifluoromethylbenzyloxymethyl)-piperazin-2-one] | 68 |
| COc1cccc(CCNC(=O)c2ccc(N3C(=O)CNC[C@@H]3COc3ccc4ccccc4c3)cc2)c1 [Example 50, N-[2-(3-methoxyphenyl)-ethyl]-4-[(2R)-2-(naphthalen-2-yloxymethyl)-6-oxopiperazin-1-yl]-benzamide] | > 1000 |
| COC(=O)CCN1CCc2ccc(OC[C@H]3CNCC(=O)N3c3ccc(OCCCOCc4ccccc4OC)cc3)cc21 [Example 133, 3-[6-([2R]-1-{4-[3-(2-Methoxybenzyloxy)-propoxy]-phenyl}-6-oxo-piperazin-2-ylmethoxy)-2,3-dihydro-indol-1-yl]-propionic acid methyl ester] | 9.59 |
| COc1ccccc1COCCCOc1ccc(N2C(=O)CNC[C@@H]2COc2ccc3ccccc3n2)cc1 [Example 77, (6R)-1-{4-[3-(2-methoxybenzyloxy)-propoxy]-phenyl}-6-(quinolin-2-yloxymethyl)-piperazin-2-one] | 13100 |
| COc1ccccc1COCCCOc1ccc(N2C(=O)CNC[C@@H]2COc2ccc(C(=O)N(C)C)cc2)cc1 [Example 95, 4-([2R]-1-{4-[3-(2-methoxybenzyloxy)-propoxy]-phenyl}-6-oxopiperazin-2-ylmethoxy)-N,N-dimethyl-benzamide] | 4050 |
| COc1ccccc1COCCCOc1ccc(N2C(=O)CNC[C@@H]2COCc2ccccc2C)cc1 [Example 21, (6R)-1-{4-[3-(2-methoxybenzyloxy)-propoxy]-phenyl}-6-(2-methylbenzyloxymethyl)-piperazin-2-one] | > 1000 |
| COc1ccccc1COCCCOc1ccc(N2C(=O)CNC[C@@H]2COCc2cccnc2)cc1 [Example 23, (6R)-1-{4-[3-(2-methoxybenzyloxy)-propoxy]-phenyl}-6-(pyridin-3-ylmethoxymethyl)-piperazin-2-one] | 117 |
| COc1ccccc1COCCCOc1ccc(N2C(=O)CNC[C@@H]2COc2ccc3ccccc3c2)cc1C [Example 103, (6R)-1-{4-[3-(2-methoxybenzyloxy)-propoxy]-3-methyl-phenyl}-6-(naphthalene-2-yloxymethyl)-piperazin-2-one] | 167 |
| COc1ccccc1COCCCOc1ccc(N2C(=O)CNC[C@@H]2COCc2ccc(F)c(C(F)(F)F)c2)cc1 [Example 26, (6R)-6-(4-fluoro-3-trifluoromethylbenzyloxymethyl)-1-{4-[3-(2-methoxybenzyloxy)-propoxy]-phenyl}-piperazin-2-one] | 132 |
